Experimental data taken from publication PMC3634896 (Bioorganic & medicinal chemistry letters, 2013).
Values joined by “and” are separate entries in the source; they are usually repeats but may differ in a detail not shown here. Equal values may be shown once.

Experiments:
human M5 = target: T1, human M5 (Homo sapiens, UniProt P08912); test: M5 PAM concentration-response-curve; assay type: cell-based; conditions: Table 1, average of three independent experiments
T1 sequence (P08912 1-532): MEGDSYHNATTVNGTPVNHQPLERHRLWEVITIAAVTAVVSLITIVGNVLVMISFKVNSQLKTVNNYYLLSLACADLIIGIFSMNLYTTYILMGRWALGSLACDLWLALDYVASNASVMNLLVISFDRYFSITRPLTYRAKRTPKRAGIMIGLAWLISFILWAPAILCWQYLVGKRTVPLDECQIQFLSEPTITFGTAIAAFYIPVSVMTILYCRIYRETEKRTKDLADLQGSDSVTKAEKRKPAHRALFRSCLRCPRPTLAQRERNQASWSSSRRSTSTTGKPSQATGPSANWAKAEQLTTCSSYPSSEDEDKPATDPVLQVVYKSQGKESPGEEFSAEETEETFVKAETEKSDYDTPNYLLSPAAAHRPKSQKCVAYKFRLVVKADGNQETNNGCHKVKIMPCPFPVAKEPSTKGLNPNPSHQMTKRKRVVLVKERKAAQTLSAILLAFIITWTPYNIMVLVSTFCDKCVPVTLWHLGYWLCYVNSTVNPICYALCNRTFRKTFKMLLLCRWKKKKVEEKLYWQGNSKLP

[1] = ancillary pharmacology profile
M1-M4 [2] = test: human mAChR selectivity versus M1-M4; assay type: cell-based; conditions: read-out: M1-M4 EC50s; human data is the same as rat
rat M5 = target: T2, rat M5 (Rattus norvegicus, UniProt P08911); test: M5 PAM CRC, rat M5; assay type: cell-based
T2 sequence (P08911 1-531): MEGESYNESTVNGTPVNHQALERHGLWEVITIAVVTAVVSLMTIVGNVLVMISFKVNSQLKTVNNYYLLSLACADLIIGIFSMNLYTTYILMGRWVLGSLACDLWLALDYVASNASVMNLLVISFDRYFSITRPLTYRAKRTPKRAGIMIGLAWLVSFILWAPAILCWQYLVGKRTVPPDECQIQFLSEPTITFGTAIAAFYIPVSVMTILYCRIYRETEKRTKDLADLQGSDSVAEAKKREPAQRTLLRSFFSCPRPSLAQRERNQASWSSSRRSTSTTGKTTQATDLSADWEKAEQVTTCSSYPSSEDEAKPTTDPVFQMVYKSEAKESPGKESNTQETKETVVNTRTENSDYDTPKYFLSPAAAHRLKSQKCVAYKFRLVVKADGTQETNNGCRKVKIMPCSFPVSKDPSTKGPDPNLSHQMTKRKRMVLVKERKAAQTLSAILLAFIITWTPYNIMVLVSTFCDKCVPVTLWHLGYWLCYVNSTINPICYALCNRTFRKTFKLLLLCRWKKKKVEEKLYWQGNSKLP

M1-M4 [3] = test: rat mAChR selectivity versus M1-M4; assay type: cell-based; conditions: read-out: M1-M4 EC50s; rat (Fig. 5C); text does not state species
CYP = CYP profile; assay type: in vitro ADME

pEC50±SEM (human M5) | ancillary pharmacology profile [1] | EC50 (M1-M4 [2]) [µM] | EC50 (rat M5) [nM] | EC50 (M1-M4 [3]) | CYP profile (CYP) | Compound
6.35±0.04 |  |  |  |  |  | O=C1C(=O)N(CCOc2ccc(Cl)cc2)c2ccc(OC(F)(F)F)cc21 [Compound 19b]
6.28±0.03 |  |  |  |  |  | Cc1cccc(OCCN2C(=O)C(=O)c3cc(OC(F)(F)F)ccc32)c1 [Compound 19d]
6.39±0.04 | relatively clean | > 30 | 500 | > 30 µM and < 30 µM | relatively clean | O=C1C(=O)N(CCOc2ccccc2)c2ccc(OC(F)(F)F)cc21 [ML326, 1-(2-phenoxyethyl)-5-(trifluoromethoxy)indoline-2,3-dione]
